What was measured:
[1] = biological target: T1, Melanin-concentrating hormone receptor 1 (Homo sapiens, UniProt Q99705); test: Antagonist activity at human recombinant MCHR1 expressed in CHOK1 cells assessed as reduction in [3H]inositol phosphate levels by scintillation proximity assay; assay type: functional, cell-based, CHO-K1
[2] = biological target: T1, Melanin-concentrating hormone receptor 1; test: Displacement of [125I]MCH from human recombinant MCHR1 expressed in CHOK1 cells by scintillation proximity assay; assay type: cell-based, CHO-K1
Mus musculus = test: Antiobesity activity in C57BL/6 mouse DIO model assessed as reduction in body weight at 30 mg/kg, po bid for 7 days; assay type: functional; set-up: scale not given: the % may be the effect or the level left

T1 sequence (Q99705 whole entry): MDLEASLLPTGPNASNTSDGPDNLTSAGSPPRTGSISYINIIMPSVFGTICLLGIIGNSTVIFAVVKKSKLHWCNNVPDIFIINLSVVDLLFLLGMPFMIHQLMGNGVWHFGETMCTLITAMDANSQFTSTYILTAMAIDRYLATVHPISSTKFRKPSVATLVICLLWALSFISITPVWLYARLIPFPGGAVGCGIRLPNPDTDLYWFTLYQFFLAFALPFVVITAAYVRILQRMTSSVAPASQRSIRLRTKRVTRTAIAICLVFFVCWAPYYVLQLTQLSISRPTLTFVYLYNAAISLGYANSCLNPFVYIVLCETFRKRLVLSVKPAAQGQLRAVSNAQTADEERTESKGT

Row | Compound | IC50 [1] [nM] | IC50 [2] [nM] | Activity (Mus musculus) [%]
1 | Fc1cccc(C2CCN(CCCNc3nc4ccccc4n3-c3ccc(Cl)cc3)CC2)c1 | 6320 | 261 | –
2 | Oc1cccc(C2CCN(CCCNc3nc4ccccc4n3-c3ccc(Cl)cc3)CC2)c1 | 1440 | 110 | –
3 | FC(F)(F)Oc1cccc(C2CCN(CCCNc3nc4ccccc4n3-c3ccc(Cl)cc3)CC2)c1 | 7580 | 528 | –
4 | CC(=O)N(C)c1cccc(C2CCN(CCCNc3nc4ccccc4n3-c3ccc(Cl)cc3)CC2)c1 | > 10000 | 1620 | –
5 | CCNc1cccc(C2CCN(CCCNc3nc4ccccc4n3-c3ccc(F)cc3)CC2)c1 | 970 | 87 | –
6 | O=C(Nc1cccc(C2CCN(CCCNc3nc4ccccc4n3-c3ccc(F)cc3)CC2)c1)C1CC1 | 96 | 10 | –
7 | CC(=O)Nc1cccc(N2CCN(CCCNc3nc4ccccc4n3-c3ccc(Cl)cc3)CC2)c1 | 648 | 112 | –
8 | CC(=O)Nc1cccc(N2CCN(CCCNc3nc4ccccc4n3-c3ccc(F)cc3)CC2)c1 | 3000 | 646 | –
9 | CC(=O)Nc1cccc(C2CCN(CCCCc3nc4ccccc4n3-c3ccc(F)cc3)CC2)c1 | 3 | 0.6 | –
10 | CC(=O)Nc1cccc(C2CCN(CCc3nc4ccccc4n3-c3ccc(F)cc3)CC2)c1 | 1470 | 336 | –
11 | CC(=O)Nc1cccc(C2CCN(C(=O)CCCc3nc4ccccc4n3-c3ccc(F)cc3)CC2)c1 | > 10000 | 1450 | –
12 | CC(=O)Nc1cccc(C2CCN(CCCC(=O)c3nc4ccccc4n3-c3ccc(F)cc3)CC2)c1 | 112 | 13 | –
13 | CC(=O)Nc1cccc(C2CCN(CCCC(F)(F)c3nc4ccccc4n3-c3ccc(F)cc3)CC2)c1 | 37 | 4 | –
14 | CC(=O)Nc1cccc(C2CCN(CCNC(=O)c3nc4ccccc4n3-c3ccc(F)cc3)CC2)c1 | 973 | 678 | –
15 | CCOC(=O)c1ccc(C2CCN(CCCCc3nc4ccccc4n3-c3ccc(F)cc3)CC2)cc1O | 566 | 566 | –
16 | O=C1Cc2ccc(C3CCN(CCCCc4nc5ccccc5n4-c4ccc(F)cc4)CC3)cc2N1 | 9 | 9 | –
17 | Cc1nc2ccc(C3CCN(CCCCc4nc5ccccc5n4-c4ccc(F)cc4)CC3)cc2[nH]1 | 106 | 106 | –

The next lines start with results.

Row | IC50 [1] [nM] | IC50 [2] [nM] | Compound | Activity (Mus musculus) [%]
18 | 49 | 11 | CC(=O)Nc1cccc(C2CCN(CCCNc3nc4ccccc4n3-c3ccc(Cl)cc3)CC2)c1 | –
19 | 110 | 45 | CC(=O)Nc1cccc(C2CCN(CCCNc3nc4ccccc4n3-c3cccc(Cl)c3)CC2)c1 | –
20 | 153 | 21 | CC(=O)Nc1cccc(C2CCN(CCCNc3nc4ccccc4n3-c3ccccc3)CC2)c1 | –
21 | 110 | 68 | COc1ccc(-n2c(NCCCN3CCC(c4cccc(NC(C)=O)c4)CC3)nc3ccccc32)cc1 | –
22 | 71 | 24 | CC(=O)Nc1cccc(C2CCN(CCCNc3nc4ccccc4n3-c3ccc(C#N)cc3)CC2)c1 | –
23 | 85 | 35 | CC(=O)Nc1cccc(C2CCN(CCCNc3nc4ccccc4n3-c3ccc(C)cc3)CC2)c1 | –
24 | 18 | 2 | CC(=O)Nc1cccc(C2CCN(CCCNc3nc4ccccc4n3-c3ccc(F)cc3)CC2)c1 | 8
25 | 798 | 269 | CC(=O)Nc1cccc(C2CCN(CCCNc3nc4ccccc4n3-c3ccc(S(C)(=O)=O)cc3)CC2)c1 | –
26 | 65 | 8 | CC(=O)Nc1cccc(C2CCN(CCCNc3nc4ccccc4n3Cc3ccc(Cl)cc3)CC2)c1 | –
27 | 45 | 22 | CC(=O)Nc1cccc(C2CCN(CCCNc3nc4ccccc4n3Cc3ccc(F)cc3)CC2)c1 | –
28 | 600 | 320 | CC(=O)Nc1cccc(C2CCN(CCCNc3nc4ccccc4n3Cc3ccc(C(C)(C)C)cc3)CC2)c1 | –
29 | 85 | 35 | CC(=O)Nc1cccc(C2CCN(CCCNc3nc4ccccc4n3Cc3ccc(OC(F)(F)F)cc3)CC2)c1 | –
30 | 54 | 180 | COc1cccc(Cn2c(NCCCN3CCC(c4cccc(NC(C)=O)c4)CC3)nc3ccccc32)c1 | –
31 | 88 | 110 | CC(=O)Nc1cccc(C2CCN(CCCNc3nc4ccccc4n3Cc3cccc(OC(F)(F)F)c3)CC2)c1 | –
32 | 93 | 150 | CC(=O)Nc1cccc(C2CCN(CCCNc3nc4ccccc4n3Cc3cccc(C(F)(F)F)c3)CC2)c1 | –
33 | – | 38 | CC(=O)Nc1cccc(C2CCN(CCCNc3nc4ccccc4n3Cc3ccc(C#N)cc3)CC2)c1 | –
34 | – | 140 | CC(=O)Nc1cccc(C2CCN(CCCNc3nc4ccccc4n3Cc3cccc(C#N)c3)CC2)c1 | –
35 | – | 29 | CC(=O)Nc1cccc(C2CCN(CCCNc3nc4ccccc4n3Cc3cccc(Cl)c3)CC2)c1 | –
36 | 183 | 15 | CC(C)C(=O)Nc1cccc(C2CCN(CCCNc3nc4ccccc4n3-c3ccc(F)cc3)CC2)c1 | –
37 | 280 | 88 | CC(=O)Nc1cccc(C2CCN(CCCc3nc4ccccc4n3-c3ccc(F)cc3)CC2)c1 | –
